From PMC8022858, “Discovery of bone morphogenetic protein 7-derived peptide sequences that attenuate the human osteoarthritic chondrocyte phenotype” (Molecular Therapy. Methods & Clinical Development, 2021)

What was measured:
[1] = system: OA-HACs with NKX3-2 knockdown; test: NKX3-2 siRNA knockdown and peptide treatment, hypertrophy gene expression; type: cell-based, human; conditions: OA-HAC pool (n = 4 donors), then 100 nM peptide 24 h (Figure 5A); for chondrocyte hypertrophy-inhibiting bioactivity in control (scrambled siRNA) condition: 100 nM siRNA 24 h; for rescue of hypertrophy-inducing consequences of NKX3-2 knockdown: NKX3-2 siRNA 100 nM 24 h
Text: A chondrocyte phenotypic consequence of exposure to peptides p[63−82] or p[113−132] is an overall attenuation of hypertrophy. Previously, we[17]^,[27] and others[29]^,[30] recognized NKX3-2 (BAPX1) as an important negative regulator of chondrocyte hypertrophy, and the hypertrophy-inhibiting action of BMP7 on OA-HACs is, at least in part, mediated via NKX3-2.[27] Taking into consideration that the ability to induce NKX3-2 expression was one of the screening criteria for the identification of the here-described, BMP7-derived peptides (Figures 2 and S2), we next investigated whether NKX3-2 is involved in the bioactivity of peptides p[63−82] and p[113−132]. By means of small interfering (si)RNA transfection, NKX3-2 expression was reduced in a pool of OA-HACs. […] Treatment of control conditions (scrambled siRNA) with peptide p[63−82] or p[113−132]confirmed the peptides’ chondrocyte hypertrophy-inhibiting bioactivity (Figure 5A).
Figure 5 Molecular characterization of peptides p[63−82] and p[113−132] (A) A pool of OA-HACs (n = 4 donors) was transfected with a scrambled siRNA or with an NKX3-2 siRNA (100 nM siRNA) and cultured for 24 h. Cultures were then exposed to peptide p[63−82] or p[113−132] (100 nM peptide). Samples were harvested 24 h later and analyzed for the expression of the indicated mRNAs (normalized to 28S rRNA). (B) SW1353 chondrocytic cells were transfected with BRE (SMAD1/5/8 reporter) or CAGA12 (SMAD2/3 reporter) firefly luciferase-reporter plasmids. A CMV-Gaussia plasmid was cotransfected as a transfection control. Cells were then cultured for 24 h and subsequently exposed to control, p[63−82], or p[113−132] for 8 h. Firefly and Gaussia bioluminescence were measured in cells and medium (respectively), and relative light units (RLUs) of firefly luciferase were normalized for the Gaussia luciferase signal. The normalized firefly luciferase signal of the control condition was set at 1, and peptide conditions were calculated relative to the control condition (FL/GL). Error bars represent mean ± SEM; statistical significance for peptide conditions versus siScrambled or siNKX3-2 (A) or control condition (B) as determined by unpaired two-tailed Student’s t test is represented as ∗p < 0.05, ∗∗p < 0.01, and ∗∗∗p < 0.001. […] An alanine-scanning bioactivity score (sum of the fold change gene expression of COL10A1, ALPL, MMP13, and COL2A1 plus NKX3-2 of the alanine-substituted peptides versus the wild-type p[63−82] peptide) was calculated for each alanine substitution in the amino acid sequence of peptide p[63−82] and is represented by the height of each letter on the y axis (data in Figure S4). […]

[2] = system: BRE reporter (SMAD1/5/8 dependent) in SW1353 chondrocytic cells; test: BRE firefly luciferase reporter assay; type: cell-based; conditions: 8 h peptide exposure, firefly normalized to Gaussia luciferase, relative to control (Figure 5B)
Method: Figure 5 Molecular characterization of peptides p[63−82] and p[113−132] (A) A pool of OA-HACs (n = 4 donors) was transfected with a scrambled siRNA or with an NKX3-2 siRNA (100 nM siRNA) and cultured for 24 h. Cultures were then exposed to peptide p[63−82] or p[113−132] (100 nM peptide). Samples were harvested 24 h later and analyzed for the expression of the indicated mRNAs (normalized to 28S rRNA). (B) SW1353 chondrocytic cells were transfected with BRE (SMAD1/5/8 reporter) or CAGA12 (SMAD2/3 reporter) firefly luciferase-reporter plasmids. A CMV-Gaussia plasmid was cotransfected as a transfection control. Cells were then cultured for 24 h and subsequently exposed to control, p[63−82], or p[113−132] for 8 h. Firefly and Gaussia bioluminescence were measured in cells and medium (respectively), and relative light units (RLUs) of firefly luciferase were normalized for the Gaussia luciferase signal. The normalized firefly luciferase signal of the control condition was set at 1, and peptide conditions were calculated relative to the control condition (FL/GL). Error bars represent mean ± SEM; statistical significance for peptide conditions versus siScrambled or siNKX3-2 (A) or control condition (B) as determined by unpaired two-tailed Student’s t test is represented as ∗p < 0.05, ∗∗p < 0.01, and ∗∗∗p < 0.001. […]

| Substance | chondrocyte hypertrophy-inhibiting bioactivity in control (scrambled siRNA) condition [1] | rescue of hypertrophy-inducing consequences of NKX3-2 knockdown [1] | BRE reporter activity [2] |
| --- | --- | --- | --- |
| H-AAYYSEGESAFPLNSYMNAT-OH [p[63−82]] | confirmed | did not show rescue | induce |
| H-SVLYFDDSSNVILKKYRNMV-OH [p[113−132]] | confirmed | did not show rescue | induce |
